Experimental data as given in US9657022B2, “7-OXO-1,6-diazabicyclo[3.2.1]octane derivatives and their use as antibacterial agents” (WOCKHARDT LIMITED, priority 2014, dated 2017).
Where “and” joins values, the source holds several entries; their conditions need not be identical. Equal values may be shown once.

Tests used:
[1] = target: T1, Class A beta-lactamase SHV 18 (K. pneumoniae ATCC 700603) (Klebsiella pneumoniae, UniProt P0AD64, E235K/G234A/I4F/R39S); assay: Beta-lactamase enzyme inhibition (Nitrocefin, crude enzyme); format: biochemical; settings: Class A, K. pneumoniae ATCC 700603 (SHV 18); read-out: Beta-lactamase enzyme inhibition IC50
T1 sequence (P0AD64 1-286 I4F/R39S/G234A/E235K): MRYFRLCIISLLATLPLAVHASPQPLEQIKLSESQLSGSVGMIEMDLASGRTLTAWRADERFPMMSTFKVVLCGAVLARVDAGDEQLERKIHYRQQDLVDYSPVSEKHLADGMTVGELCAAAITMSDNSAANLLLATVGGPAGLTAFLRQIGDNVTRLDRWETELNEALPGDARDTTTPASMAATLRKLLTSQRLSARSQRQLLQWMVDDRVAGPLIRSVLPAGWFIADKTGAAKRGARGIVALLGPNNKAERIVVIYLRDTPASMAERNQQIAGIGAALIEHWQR
Experimental: (§1) Absorbance was measured at 485 nm by UV-spectrophotometer. The IC50 was calculated by plotting absorbance against concentration through Sigmoidal dose response curve using Graph Pad software.
(§2) The enzyme inhibition was expressed as IC50.

[2] = target: T2, Class D beta-lactamase OXA 23 (A. baumannii NCTC 13301) (Acinetobacter baumannii, UniProt Q9L4P2); assay: as above; format: biochemical; settings: Class D, A. baumannii NCTC 13301 (OXA 23); read-out: Beta-lactamase enzyme inhibition IC50
T2 construct: preincubated mixture of crude enzyme and the compounds; endogenous in cells; host or cells: A. baumannii NCTC 13301
Experimental: as §1, §2

T2 sequence (Q9L4P2 18-273): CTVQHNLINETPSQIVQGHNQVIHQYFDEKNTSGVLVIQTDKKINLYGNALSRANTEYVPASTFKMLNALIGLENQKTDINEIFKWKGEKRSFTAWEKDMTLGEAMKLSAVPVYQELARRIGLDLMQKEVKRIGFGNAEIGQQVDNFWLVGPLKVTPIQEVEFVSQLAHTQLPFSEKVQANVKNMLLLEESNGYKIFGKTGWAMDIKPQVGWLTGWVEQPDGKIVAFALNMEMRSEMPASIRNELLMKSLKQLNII

**Q.** With `O=C(C[C@@H]1CCCN1)NNC(=O)[C@@H]1CC[C@@H]2CN1C(=O)N2OS(=O)(=O)O` [Example 1, (2S,5R)-Sulfuric acid mono-{2-[N′-(2-(S)-pyrrolidin-2-yl-acetyl)-hydrazinocarbonyl]-7-oxo-1,6-diaza-bicyclo[3.2.1]oct-6-yl}ester] as the molecule, how does the IC50 [1] read?
**A.** 80 nM and 81 nM

**Q.** And the IC50 [2]?
**A.** 2390 nM
